Cytotoxicity and IC50 data for eight compounds are collected here from ChEMBL document CHEMBL1133412, “Rational design, synthesis and structure-activity relationships of antitumor (E)-2-benzylidene-1-tetralones and (E)-2-benzylidene-1-indanones” (Bioorg Med Chem Lett, 2000).

A word on the pIC50: it is the IC50 on a negative log10 scale, so that one unit is a factor of ten. High values mean a low IC50, low ones a high IC50.

pIC50: −log10 of the molar value.

Assay type in all cases: functional, cell-based
One experiment relates to A549. Kind of experiment: Cytotoxicity evaluated against A549 tumor cell lines; significant activity. As to conditions: Homo sapiens.
A further experiment concerns B16. Kind of experiment: Cytotoxicity was evaluated against B16 tumor cell lines; Significant activity. As to conditions: Mus musculus.
In another experiment the test system is CCRF-CEM. Kind of experiment: Cytotoxicity evaluated against CEM tumor cell lines; Significant activity. The conditions noted are these: Homo sapiens.
In the next experiment the test system is NCI-H596. Description: Cytotoxicity evaluated against H596 tumor cell lines; Significant activity. The conditions noted are these: Homo sapiens.
The test system of another experiment is NCI-H292. Kind of experiment: Cytotoxicity evaluated against H292 tumor cell lines; Significant activity. The conditions noted are these: Homo sapiens.
The next experiment has as its system HL-60. Kind of experiment: Cytotoxicity evaluated against HL-60 tumor cell lines; Significant activity. The conditions noted are these: Homo sapiens.
Another experiment relates to Jurkat. Description: In vitro test for antitumor activity against human Jurkat cell line using a formazan dye (MTT) conversion assay.
The test system of the next experiment is K562. Description: Cytotoxicity evaluated against K562 tumor cell lines; Significant activity. As to conditions: Homo sapiens.
Another experiment has as its system L1210. Description: Cytotoxicity evaluated against L1210 tumor cell lines; Significant activity. The conditions noted are these: Mus musculus.
A further experiment concerns MCF7. Kind of experiment: Cytotoxicity evaluated against MCF-7 tumor cell lines; Significant activity. The conditions noted are these: Homo sapiens.
A further experiment has as its system MOLT-4. Description: Cytotoxicity was evaluated against Molt-4 tumor cell lines. As to conditions: Homo sapiens.
For another experiment, the system named is NIH3T3. Kind of experiment: Cytotoxicity evaluated against NIH3T3 tumor cell lines; Significant activity. The conditions noted are these: Mus musculus.
Another experiment deals with WI-38. Description: Cytotoxicity evaluated against WI38 tumor cell lines; Significant activity. As to conditions: Homo sapiens.
A further experiment relates to WIL2. Description: Cytotoxicity evaluated against WIL2 tumor cell lines; Significant activity. The conditions noted are these: Homo sapiens.

In the case of `COc1cc2c(cc1OC)C(=O)/C(=C/c1cccc(C)c1)C2`, the Cytotoxicity entry with A549, with B16, in the experiment on CCRF-CEM, in the experiment on NCI-H596, in the experiment with NCI-H292 and in the experiment with HL-60 was “Significant activity” each time. The Cytotoxicity entry with K562, with L1210, with MCF7, in the experiment on MOLT-4, with NIH3T3 and in the experiment on WI-38 was “Significant activity” in each case. The Cytotoxicity entry with WIL2 was “Significant activity”. Further, in the experiment with Jurkat, the pIC50 was 5.74.
As for `COc1cc2c(cc1OC)C(=O)/C(=C/c1cccc(Cl)c1)CC2`, the Cytotoxicity entry in the experiment with A549, with B16, in the experiment with CCRF-CEM, in the experiment with NCI-H596, in the experiment with NCI-H292 and with HL-60 was “Significant activity” throughout. Also, the Cytotoxicity result with K562, in the experiment with L1210, with MCF7, in the experiment on MOLT-4, in the experiment on NIH3T3 and in the experiment on WI-38 was “Significant activity” each time. Moreover, the Cytotoxicity entry in the experiment with WIL2 is “Significant activity”. Further, the pIC50 in the experiment with Jurkat is 5.05.
As to `COc1cccc(/C=C2\Cc3cc(OC)c(OC)cc3C2=O)c1`, the Cytotoxicity entry in the experiment with A549, with B16, with CCRF-CEM, with NCI-H596, with NCI-H292 and in the experiment on HL-60 was “Significant activity” throughout. Moreover, the Cytotoxicity entry with K562, in the experiment with L1210, in the experiment with MCF7, in the experiment with MOLT-4, in the experiment on NIH3T3 and in the experiment on WI-38 was “Significant activity” each time. Besides, the Cytotoxicity result in the experiment on WIL2 was “Significant activity”. Besides, in the experiment on Jurkat, the pIC50 is 4.89.
For the compound `COc1cc2c(cc1OC)C(=O)/C(=C/c1cc(C)c(OCC(=O)O)c(C)c1)C2`, the Cytotoxicity result in the experiment on A549, with B16, with CCRF-CEM, in the experiment with NCI-H596, with NCI-H292 and in the experiment with HL-60 was “Significant activity” throughout. For the same compound, the Cytotoxicity result with K562, in the experiment on L1210, in the experiment with MCF7, in the experiment with MOLT-4, in the experiment on NIH3T3 and in the experiment on WI-38 was “Significant activity” each time. The Cytotoxicity entry in the experiment with WIL2 is “Significant activity”. Moreover, the pIC50 with Jurkat was 5.20.
Take `COc1cc2c(cc1OC)C(=O)/C(=C/c1cccc(Cl)c1)C2`: the Cytotoxicity result with A549, in the experiment on B16, with CCRF-CEM, with NCI-H596, with NCI-H292 and with HL-60 was “Significant activity” in each case. For the same compound, the Cytotoxicity entry in the experiment with K562, in the experiment on L1210, in the experiment with MCF7, in the experiment with MOLT-4, in the experiment with NIH3T3 and in the experiment on WI-38 was “Significant activity” in each case. The Cytotoxicity entry in the experiment with WIL2 is “Significant activity”. The compound further had a pIC50 in the experiment on Jurkat of 5.10.
Turning to `COc1cc2c(cc1OC)C(=O)/C(=C/c1cc(C)c(OC(C)=O)c(C)c1)C2`, the Cytotoxicity result with A549, with B16, in the experiment with CCRF-CEM, in the experiment on NCI-H596, with NCI-H292 and in the experiment with HL-60 was “Significant activity” throughout. Besides, the Cytotoxicity result in the experiment on K562, in the experiment on L1210, with MCF7, in the experiment on MOLT-4, in the experiment on NIH3T3 and in the experiment with WI-38 was “Significant activity” in each case. The Cytotoxicity result in the experiment on WIL2 was “Significant activity”. The pIC50 with Jurkat was 6.40.
Consider `COc1cc2c(cc1O)C/C(=C\c1cc(C)c(O)c(C)c1)C2=O`, for which the Cytotoxicity entry in the experiment with A549, in the experiment on B16, in the experiment with CCRF-CEM, in the experiment on NCI-H596, with NCI-H292 and with HL-60 was “Significant activity” throughout. Moreover, the Cytotoxicity entry with K562, in the experiment with L1210, in the experiment on MCF7, in the experiment with MOLT-4, in the experiment on NIH3T3 and in the experiment with WI-38 was “Significant activity” throughout. Also, the Cytotoxicity result in the experiment with WIL2 was “Significant activity”. This compound gave a pIC50 in the experiment with Jurkat of 6.28.
As for `COc1cc2c(cc1OC)C(=O)/C(=C/c1cc(I)cc(I)c1O)C2`, the Cytotoxicity entry in the experiment on A549, in the experiment on B16, in the experiment with CCRF-CEM, in the experiment on NCI-H596, in the experiment on NCI-H292 and in the experiment on HL-60 was “Significant activity” in each case. The Cytotoxicity entry with K562, in the experiment with L1210, in the experiment with MCF7, in the experiment on MOLT-4, with NIH3T3 and with WI-38 was “Significant activity” throughout. Moreover, the Cytotoxicity entry in the experiment on WIL2 was “Significant activity”. The pIC50 with Jurkat was 5.60.
